Measured values reported in patent publication US20150065717A1, “NIPECOTIC ACID DERIVATIVE AND USE THEREOF FOR MEDICAL PURPOSES” (Toray Industries, Inc., priority 2012, published 2015).

What was measured:
[1] = system: rat monocrotaline-administered pulmonary hypertension model; experiment: Action on systemic blood pressure in rat monocrotaline-administered pulmonary hypertension model, single dose; format: in vivo, rat (SD strain); conditions: single oral dose of 10 mg/kg on day 9 after monocrotaline; Hour 1, 2, 3, 4, 5 and 6 after administration
Method: Example Compound 1 was administered to monocrotaline-administered pulmonary hypertension model rats in a single dose, and the action of the nipecotic acid derivative (I) or a pharmaceutically acceptable salt thereof on the systemic blood pressure from immediately after the administration was evaluated.
Pulmonary hypertension was induced in Rats (SD strain, male, 11 weeks old; Charles River Laboratories Japan, Inc.) by subcutaneous administration of an aqueous monocrotaline (Sigma Corporation) solution (60 mg/kg) to the back.
On Day 7 after administration of monocrotaline, the rats with induced pulmonary hypertension were anesthetized, and hair in the femoral region and the nape was removed, followed by disinfection of the operative field using Isodine solution. […] The blood pressure was analyzed after amplification by Blood Pressure Amplifier, and the heart rate was analyzed via Heart Rate Counter using the pulse waveform as a trigger. […] From immediately after administration of Example Compound 1 or 0.5% aqueous methyl cellulose solution supplemented with 0.5% Tween 80, the mean systemic blood pressure was measured at Hour 1, 2, 3, 4, 5 and 6 after administration.

[2] = system: rat monocrotaline-administered pulmonary hypertension model; experiment: Rat monocrotaline-administered pulmonary hypertension model, administration from advanced stage; format: in vivo, rat (Wistar strain); conditions: 10 mg/kg orally once per day for 18 or 19 days from Day 10 after monocrotaline; t-test p<0.05; FIG. 7
Method: Rats (Wistar strain, male, 5 weeks old; JAPAN SLC, Inc.) with pulmonary hypertension induced by subcutaneous administration of an aqueous monocrotaline (Sigma Corporation) solution (60 mg/kg) to the back were provided as “group with induced pulmonary hypertension”. On the other hand, rats to which water for injection was similarly administered were provided as “normal group”.
To rats in the group with induced pulmonary hypertension, Example Compound 1 (3 or 10 mg/kg) or a positive control compound tadalafil (10 mg/kg) was orally administered once per day. Administration of Example Compound 1 (3 or 10 mg/kg) was carried out for 18 or 19 days from Day 10 after the administration of monocrotaline. Administration of tadalafil (10 mg/kg) was carried out for 28 or 29 days from the day of administration of monocrotaline. […]
On the last day of administration of the test compound, blood was collected from the abdominal vena cava of each rat under anesthesia, and the rat was then euthanized, followed by removal of the heart for measurement of the wet weights of the right ventricle, left ventricle and septum to determine the right ventricular weight ratio (right ventricular weight/(septum weight+left ventricular weight)). The 14,15-DHET concentration in the collected blood was measured by the ELISA method. […]

## CCC(=O)NC1(C(=O)N2CCC[C@@H](C(=O)NCc3ccc(C#N)cc3OC(F)(F)F)C2)CCC1 [Example Compound 1, (R)—N-(4-cyano-2-(trifluoromethoxy)benzyl)-1-(1-propionamidocyclobutanecarbonyl)piperidine-3-carboxamide]
[1]
  mean systemic blood pressure vs pulmonary hypertension control group: no significant difference
[2]
  right ventricular weight ratio vs pulmonary hypertension control group: statistically significantly lower
